Read-outs that look alike come from different tables or passages of the source.
Legend:
HCV genotype 1b replicon = assay: HCV replicon assay, genotype 1b replicon EC50; assay type: cell-based, Hepatitis C virus; settings: read-out: EC50 [gt-1b]
In short: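 Potency comes from a four-parameter fit of signal as percent of DMSO control. Replicon-bearing cells were treated 24-48 hours with a compound dilution series in absence of G418, and replicon RNA was quantified normalized to cyclophilin A RNA, or luciferase read.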

[1] = target: HCV NS3/4A protease genotype 1b (Hepatitis C virus genotype 1b, UniProt P26663); assay: HCV NS3/4A protease time-resolved fluorescence (TRF) assay, Ki against genotype 1b; assay type: biochemical
In short: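 Ki was converted from fitted IC50 using IC50=Ki(1+[S]/KM) and 25 nM substrate. Protease (genotype 1b 0.2 nM, A156T 0.4 nM, 3a 0.025 nM) and compound were pre-mixed 30 min in pH 7.5 HEPES/NaCl/glycerol/DTT buffer. Cleavage then proceeded 2.5 h at room temperature, detected by time-resolved europium fluorescence (340/615 nm).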

[2] = Hepatitis C virus, genotype 1b replicon, K+ salt
[3] = IC50 [gt-1b] (nM), NS3/4A genotype 1b, enzyme 0.2 nM, K+ salt
[4] = Hepatitis C virus, genotype 1b replicon
[5] = IC50 [gt-1b] (nM), NS3/4A genotype 1b, enzyme 0.2 nM
[6] = Hepatitis C virus, HCV replicon, genotype 1b
[7] = IC50 [gt-1b], NS3/4A protease TRF assay, genotype 1b enzyme 0.2 nM

`COc1ccc2nc(C)c3c(c2c1)[C@H](F)C[C@]1(C[C@H]2C(=O)N[C@]4(C(=O)NS(=O)(=O)C5(C)CC5)C[C@H]4/C=C\CCCCC[C@H](NC(=O)O[C@@H](C)C(C)C)C(=O)N2C1)O3` [Example 357, (2S)-3-methylbutan-2-yl [(1′R,2S,6S,12Z,13aS,14aR,16aS)-1′-fluoro-9′-methoxy-5′-methyl-14a-{[(1-methylcyclopropyl)sulfonyl]carbamoyl}-5,16-dioxo-1,1′,2′,5,6,7,8,9,10,11,13a,14,14a,15,16,16a-hexadecahydrospiro[cyclopropa[e]pyrrolo[1,2-a][1,4]diazacyclopentadecine-2,3′-pyrano[2,3-c]quinolin]-6-yl]carbamate] was tested, and the EC50 (HCV genotype 1b replicon; [2]) was 2.91 nM and the IC50 [1, 3] was 0.01 nM.
For `Cc1nc2ccccc2c2c1O[C@]1(CC2)C[C@H]2C(=O)N[C@]3(C(=O)NS(=O)(=O)C4(C)CC4)C[C@H]3/C=C\CCCCC[C@H](NC(=O)OC(C)C)C(=O)N2C1` [Example 105, propan-2-yl [(2R,6S,12Z,13aS,14aR,16aS)-5′-methyl-14a-{[(1-methylcyclopropyl)sulfonyl]carbamoyl}-5,16-dioxo-1,1′,2′,5,6,7,8,9,10,11,13a,14,14a,15,16,16a-hexadecahydrospiro[cyclopropa[e]pyrrolo[1,2-a][1,4]diazacyclopentadecine-2,3′-pyrano[2,3-c]quinolin]-6-yl]carbamate], the EC50 (HCV genotype 1b replicon; [4]) was 1.42 nM and the IC50 [1, 5] was 0.013 nM.
`CCN(CC)C(=O)N[C@H]1CCCCC/C=C\[C@@H]2C[C@@]2(C(=O)NS(=O)(=O)C2(C)CC2)NC(=O)[C@@H]2C[C@]3(CCc4c(c(C)nc5ccccc45)O3)CN2C1=O` [Example 289, (2R,6S,12Z,13aS,14aR,16aS)-6-[(diethylcarbamoyl)amino]-5′-methyl-N-[(1-methylcyclopropyl)sulfonyl]-5,16-dioxo-1,1′,2′,6,7,8,9,10,11,13a,14,15,16,16a-tetradecahydrospiro[cyclopropa[e]pyrrolo[1,2-a][1,4]diazacyclopentadecine-2,3′-pyrano[2,3-c]quinoline]-14a(5H)-carboxamide] gave an EC50 (HCV genotype 1b replicon; Hepatitis C virus, genotype 1b replicon, HCOOH salt) of 7 nM and an IC50 ([1]; IC50 [gt-1b] (nM), NS3/4A genotype 1b, enzyme 0.2 nM, HCOOH salt) of 0.023 nM.
In the case of `CC[C@@H](C)OC(=O)N[C@H]1CCCCC/C=C\[C@@H]2C[C@@]2(C(=O)NS(=O)(=O)C2(C)CC2)NC(=O)[C@@H]2C[C@]3(CCc4c(c(C5CC5)nc5ccc(OC)cc45)O3)CN2C1=O` [Example 420, (2R)-butan-2-yl [(2R,6S,12Z,13aS,14aR,16aS)-5′-cyclopropyl-9′-methoxy-14a-{[(1-methylcyclopropyl)sulfonyl]carbamoyl}-5,16-dioxo-1,1′,2′,5,6,7,8,9,10,11,13a,14,14a,15,16,16a-hexadecahydrospiro[cyclopropa[e]pyrrolo[1,2-a][1,4]diazacyclopentadecine-2,3′-pyrano[2,3-c]quinolin]-6-yl]carbamate], the EC50 (HCV genotype 1b replicon; Hepatitis C virus, HCV replicon, genotype 1b, K+ salt) is reported as 1.25 nM and the IC50 ([1]; IC50 [gt-1b], NS3/4A protease TRF assay, genotype 1b enzyme 0.2 nM, K+ salt) is reported as 0.011 nM.
Compound `COc1ccc2nc(C(F)F)c3c(c2c1)CC[C@]1(C[C@H]2C(=O)N[C@]4(C(=O)NS(=O)(=O)C5(C)CC5)C[C@H]4/C=C\CCCCC[C@H](NC(=O)OC(C)C)C(=O)N2C1)O3` [Example 446, propan-2-yl [(2R,6S,12Z,13aS,14aR,16aS)-5′-(difluoromethyl)-9′-methoxy-14a-{[(1-methylcyclopropyl)sulfonyl]carbamoyl}-5,16-dioxo-1,1′,2′,5,6,7,8,9,10,11,13a,14,14a,15,16,16a-hexadecahydrospiro[cyclopropa[e]pyrrolo[1,2-a][1,4]diazacyclopentadecine-2,3′-pyrano[2,3-c]quinolin]-6-yl]carbamate] has an EC50 (HCV genotype 1b replicon; [6]) of 1.17 nM and an IC50 [1, 7] of 0.013 nM.
For `COc1ccc2nc(C)c3c(c2c1)C(F)(F)C[C@]1(C[C@H]2C(=O)N[C@]4(C(=O)NS(=O)(=O)C5(C)CC5)C[C@H]4/C=C\CCCCC[C@H](NC(=O)OC(C)(C)C(F)(F)F)C(=O)N2C1)O3` [Example 265, 1,1,1-trifluoro-2-methylpropan-2-yl [(2S,6S,12Z,13aS,14aR,16aS)-1′,1′-difluoro-9′-methoxy-5′-methyl-14a-{[(1-methylcyclopropyl)sulfonyl]carbamoyl}-5,16-dioxo-1,1′,2′,5,6,7,8,9,10,11,13a,14,14a,15,16,16a-hexadecahydrospiro[cyclopropa[e]pyrrolo[1,2-a][1,4]diazacyclopentadecine-2,3′-pyrano[2,3-c]quinolin]-6-yl]carbamate], the EC50 (HCV genotype 1b replicon; [2]) was 3.35 nM and the IC50 [1, 3] was 0.007 nM.
Compound `Cc1ccc2nc(C(F)(F)F)c3c(c2c1)CC[C@]1(C[C@H]2C(=O)N[C@]4(C(=O)NS(=O)(=O)C5(C)CC5)C[C@H]4/C=C\CCCCC[C@H](NC(=O)OCCN4CCCCC4)C(=O)N2C1)O3` [Example 417, 2-(piperidin-1-yl)ethyl [(2R,6S,12Z,13aS,14aR,16aS)-9′-methyl-14a-{[(1-methylcyclopropyl)sulfonyl]carbamoyl}-5,16-dioxo-5′-(trifluoromethyl)-1,1′,2′,5,6,7,8,9,10,11,13a,14,14a,15,16,16a-hexadecahydrospiro[cyclopropa[e]pyrrolo[1,2-a][1,4]diazacyclopentadecine-2,3′-pyrano[2,3-c]quinolin]-6-yl]carbamate] has an EC50 (HCV genotype 1b replicon; [6]) of 45.3 nM and an IC50 [1, 7] of 0.094 nM.
Compound `CCc1nc2ccc(OC)cc2c2c1O[C@]1(CC2)C[C@H]2C(=O)N[C@]3(C(=O)NS(=O)(=O)C4(C)CC4)C[C@H]3/C=C\CCCCC[C@H](NC(=O)c3ccc(C)s3)C(=O)N2C1` [Example 466, (2R,6S,12Z,13aS,14aR,16aS)-5′-ethyl-9′-methoxy-N-[(1-methylcyclopropyl)sulfonyl]-6-{[(5-methylthiophen-2-yl)carbonyl]amino}-5,16-dioxo-1,1′,2′,6,7,8,9,10,11,13a,14,15,16,16a-tetradecahydrospiro[cyclopropa[e]pyrrolo[1,2-a][1,4]diazacyclopentadecine-2,3′-pyrano[2,3-c]quinoline]-14a(5H)-carboxamide] has an EC50 (HCV genotype 1b replicon; [6]) of 1.62 nM and an IC50 [1, 7] of 0.041 nM.
Work on `COc1ccc2nc(C)c3c(c2n1)[C@H](F)C[C@]1(C[C@H]2C(=O)N[C@]4(C(=O)NS(=O)(=O)C5(C)CC5)C[C@H]4/C=C\CCCCC[C@H](NC(=O)OC(C)(C)C)C(=O)N2C1)O3` [Example 374, tert-butyl [(2S,6S,10′R,12Z,13aS,14aR,16aS)-10′-fluoro-2′-methoxy-6′-methyl-14a-{[(1-methylcyclopropyl)sulfonyl]carbamoyl}-5,16-dioxo-1,5,6,7,8,9,9′,10,10′,11,13a,14,14a,15,16,16a-hexadecahydrospiro[cyclopropa[e]pyrrolo[1,2-a][1,4]diazacyclopentadecine-2,8′-pyrano[2,3-c][1,5]naphthyridin]-6-yl]carbamate] yielded an EC50 (HCV genotype 1b replicon; [6]) of 2.29 nM and an IC50 [1, 7] of 0.012 nM.
With `COCC1(S(=O)(=O)NC(=O)[C@@]23C[C@H]2/C=C\CCCCC[C@H](NC(=O)O[C@@H](C)C(C)C)C(=O)N2C[C@@]4(CCc5c(c(C(F)F)nc6ccc(OC)cc56)O4)C[C@H]2C(=O)N3)CC1` [Example 478, (2S)-3-methylbutan-2-yl [(2R,6S,12Z,13aS,14aR,16aS)-5′-(difluoromethyl)-9′-methoxy-14a-({[1-(methoxymethyl)cyclopropyl]sulfonyl}carbamoyl)-5,16-dioxo-1,1′,2′,5,6,7,8,9,10,11,13a,14,14a,15,16,16a-hexadecahydrospiro[cyclopropa[e]pyrrolo[1,2-a][1,4]diazacyclopentadecine-2,3′-pyrano[2,3-c]quinolin]-6-yl]carbamate] the EC50 (HCV genotype 1b replicon; [6]) was 5.8 nM and the IC50 [1, 7] was 0.016 nM.
Work on `CC(C)COC(=O)N[C@H]1CCCCC/C=C\[C@@H]2C[C@@]2(C(=O)NS(=O)(=O)C2(C)CC2)NC(=O)[C@@H]2C[C@]3(CCc4c(cnc5ccccc45)O3)CN2C1=O` [Example 110, 2-methylpropyl [(2R,6S,12Z,13aS,14aR,16aS)-14a-{[(1-methylcyclopropyl)sulfonyl]carbamoyl}-5,16-dioxo-1,1′,2′,5,6,7,8,9,10,11,13a,14,14a,15,16,16a-hexadecahydrospiro[cyclopropa[e]pyrrolo[1,2-a][1,4]diazacyclopentadecine-2,3′-pyrano[2,3-c]quinolin]-6-yl]carbamate] yielded an EC50 (HCV genotype 1b replicon; [4]) of 47.7 nM and an IC50 [1, 5] of 0.806 nM.
Compound `Cc1nc2ccccc2c2c1O[C@]1(CC2O)C[C@H]2C(=O)N[C@]3(C(=O)NS(=O)(=O)C4(C)CC4)C[C@H]3/C=C\CCCCC[C@H](NC(=O)OC(C)(C)C)C(=O)N2C1` (stereo partly drawn) [Example 120, tert-butyl [(2S,6S,12Z,13aS,14aR,16aS)-1′-hydroxy-5′-methyl-14a-{[(1-methylcyclopropyl)sulfonyl]carbamoyl}-5,16-dioxo-1,1′,2′,5,6,7,8,9,10,11,13a,14,14a,15,16,16a-hexadecahydrospiro[cyclopropa[e]pyrrolo[1,2-a][1,4]diazacyclopentadecine-2,3′-pyrano[2,3-c]quinolin]-6-yl]carbamate] has an EC50 (HCV genotype 1b replicon; genotype 1b replicon) of 19 nM and an IC50 [1, 5] of 0.032 nM.

— patent US8987195B2 (priority 2012, dated 2015)
